Molecules are shown by their SMILES.

In series [1] the test system is spontaneously hypertensive rats. The series can be described thus: Antihypertensive activity in spontaneously hypertensive rats (oral, tail-cuff). The series is classed as in vivo, rat. The following applies: for ED (50 mmHg): Rattus norvegicus, systolic blood pressure, read-out: ED50mmHg (effective dose for reducing blood pressure by 50 mmHg); for Max. increase of Heat Rate / Time for Onset of Max. Activity: dose reducing blood pressure by 50 to 60 mmHg. The protocol:
Male spontaneously hypertensive rats (16 to 20-week-old; body weight: 300-400 g) fed ab lib. were forceably given oral administration of a test compound suspended in 0.5% (w/v) carboxymethyl cellulose aqueous solution. After 1, 2, 4, 6, 8, 24, 30 or 48 hours from the administration, the systolic blood pressure was measured by a tail-cuff method described in Arzneimittel-Forschung, Vol. 18, pp. 1285-1287 (1968)).
The antihypertensive activity of the test compound was obtained as an effective dose for reducing blood pressure by 50 mmHg (ED50mmHg). Further, the time of onset of the maximum activity and the maximum increase in heart rate at a dose for reducing blood pressure by 50 to 60 mmHg were measured.
The statistical difference between a test compound and EMD57283 was analyzed by the Student's t-test.

Another series addresses T1, Potassium channel (Rattus norvegicus, UniProt Q63563).
T1 construct: a segment of an excised aorta of a Wistar rat; from tissue; host or cells: excised aorta segment of Wistar rat
The series can be described thus: Potassium channel opening activity, 86Rb release from excised rat aorta segment. It counts as cell-based, Wistar rat. The following applies: for potassium channel opening activity (in words): conclusion from Table 5; for ECAUC0.2 (effective concentration at which the area under the peak of the 86Rb release rate reached 0.2): rat aorta segment surface-perfused with test compound for 10 minutes.

For a further series, the system named is Guinea Pig Tracheae. The series is described as follows: Relaxing activity in guinea pig tracheae contracted with 30 mM potassium chloride. The series is classed as cell-based. The following applies: for EC50: Cavia porcellus, relaxation by 10^-8 g/ml isoproterenol as 100%, read-out: EC50 (concentration inducing 50% relaxation). As for the experimental part: Male guinea pigs (body weight: 400-650 g) were sacrificed by exsanguination, and tracheae were excised.
Tracheal responses were measured isometrically using a transducer "EF-601G" (manufactured by Nihon Koden Kogyo Co., Ltd.) and recorded on a multi-pen recorder "R64 GP" (manufactured by Rika Denki Co., Ltd.). The initial tension in the tracheal preparation was set up at 1 g after the preparation had equilibrated for about 60 minutes, a 30 mM potassium chloride was added to cause contraction.

For series [2], the system named is spontaneously hypertensive rats. The series can be described thus: Effect on renal blood flow (Doppler probe). The series is classed as in vivo, rat. The note with it: for Increase in Renal Blood Flow 1 Hr after Administration: oral, dose which reduced blood pressure by about 50 mmHg; for activity in increasing the renal blood flow vs reference drug (in words): vs EMD57283. The protocol:
Twenty-week-old male spontaneously hypertensive rats (body weight: 350-430 g) were anesthetized with pentobarbital (30 mg/kg, i.p.). An incision was made in the abdomen on the left side, and a Doppler probe for blood flow measurement was fitted to the left renal artery, and the code (wire lead) of the probe was passed under the back skin and taken out from the back of the neck. After 1 week from the operation, the code of the probe was connected to a Doppler blood flow meter to start measurement of the renal blood flow. After the renal blood flow reached to a steady state, a test compound was orally administered, and changes in renal blood flow were observed up to 9 hours. The test compound was used at a dose which reduced blood pressure by about 50 mmHg.

Another series concerns male HOS-Donryu rats. The series is described as follows: Antianginal activity, vasopressin-induced ST segment depression. It counts as in vivo, rat. The note with it: i.v.; Example 47 0.01, Nifedipine 0.03, Cromakalim 0.01 mg/kg; vasopressin 0.5 U/kg. The protocol:
The test was carried out in accordance with the method of Hiramatsu, et al. (see Japanese Journal of Pharmacology, Vol. 20, p. 313 (1970)). […] A cannula for blood pressure measurement was inserted into the left femoral artery, and a cannula for drug administration was inserted into the left femoral vein. […] Then, ECG was taken every 30 seconds over a period of 5 minutes to observe depression of the ST segment. A control group was given the solvent for the drug (a solution in which 5% dimethyl sulfoxide, 5% polyethylene glycol 200 and 1% cremophor were dissolved in physiological saline).

T1 sequence (Q63563 1-1545 isoform Q63563-2): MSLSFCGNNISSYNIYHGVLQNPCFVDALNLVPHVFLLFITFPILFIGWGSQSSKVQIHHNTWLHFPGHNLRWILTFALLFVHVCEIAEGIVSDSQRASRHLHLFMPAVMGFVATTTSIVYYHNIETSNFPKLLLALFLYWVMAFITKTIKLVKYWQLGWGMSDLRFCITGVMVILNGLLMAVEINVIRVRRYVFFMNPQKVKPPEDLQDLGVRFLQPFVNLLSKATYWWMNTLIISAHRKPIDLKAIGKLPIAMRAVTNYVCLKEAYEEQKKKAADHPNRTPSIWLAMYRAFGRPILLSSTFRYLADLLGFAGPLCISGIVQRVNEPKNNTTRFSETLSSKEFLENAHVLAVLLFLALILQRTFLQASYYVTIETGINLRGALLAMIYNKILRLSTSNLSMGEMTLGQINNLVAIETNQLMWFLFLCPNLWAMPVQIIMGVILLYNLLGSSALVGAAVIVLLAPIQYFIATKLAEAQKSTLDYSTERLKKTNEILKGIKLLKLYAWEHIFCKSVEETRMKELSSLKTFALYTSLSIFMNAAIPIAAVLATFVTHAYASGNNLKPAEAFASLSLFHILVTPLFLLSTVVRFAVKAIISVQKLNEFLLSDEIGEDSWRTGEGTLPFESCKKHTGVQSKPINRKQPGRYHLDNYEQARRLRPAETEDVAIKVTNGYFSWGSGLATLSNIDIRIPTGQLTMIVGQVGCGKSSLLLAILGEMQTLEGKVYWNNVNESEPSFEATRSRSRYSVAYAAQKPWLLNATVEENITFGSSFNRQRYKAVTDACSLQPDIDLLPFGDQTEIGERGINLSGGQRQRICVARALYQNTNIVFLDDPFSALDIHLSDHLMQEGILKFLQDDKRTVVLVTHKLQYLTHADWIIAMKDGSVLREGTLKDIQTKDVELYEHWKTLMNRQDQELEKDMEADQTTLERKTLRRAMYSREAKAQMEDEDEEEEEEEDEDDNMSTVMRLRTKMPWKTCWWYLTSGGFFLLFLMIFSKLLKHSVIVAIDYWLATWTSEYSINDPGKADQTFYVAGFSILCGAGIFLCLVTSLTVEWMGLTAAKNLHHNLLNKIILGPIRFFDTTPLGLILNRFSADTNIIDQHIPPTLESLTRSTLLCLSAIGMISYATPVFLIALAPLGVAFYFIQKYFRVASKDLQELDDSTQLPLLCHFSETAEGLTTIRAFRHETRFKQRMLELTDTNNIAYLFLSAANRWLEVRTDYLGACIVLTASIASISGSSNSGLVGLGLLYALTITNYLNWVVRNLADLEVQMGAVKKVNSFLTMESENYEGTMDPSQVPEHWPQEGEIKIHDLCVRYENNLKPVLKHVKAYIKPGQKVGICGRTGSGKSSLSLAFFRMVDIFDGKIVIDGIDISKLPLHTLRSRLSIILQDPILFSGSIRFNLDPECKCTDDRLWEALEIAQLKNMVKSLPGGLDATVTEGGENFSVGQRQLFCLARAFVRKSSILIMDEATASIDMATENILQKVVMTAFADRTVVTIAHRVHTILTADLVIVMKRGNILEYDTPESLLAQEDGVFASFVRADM
T1 sequence (Q63664 whole entry partner): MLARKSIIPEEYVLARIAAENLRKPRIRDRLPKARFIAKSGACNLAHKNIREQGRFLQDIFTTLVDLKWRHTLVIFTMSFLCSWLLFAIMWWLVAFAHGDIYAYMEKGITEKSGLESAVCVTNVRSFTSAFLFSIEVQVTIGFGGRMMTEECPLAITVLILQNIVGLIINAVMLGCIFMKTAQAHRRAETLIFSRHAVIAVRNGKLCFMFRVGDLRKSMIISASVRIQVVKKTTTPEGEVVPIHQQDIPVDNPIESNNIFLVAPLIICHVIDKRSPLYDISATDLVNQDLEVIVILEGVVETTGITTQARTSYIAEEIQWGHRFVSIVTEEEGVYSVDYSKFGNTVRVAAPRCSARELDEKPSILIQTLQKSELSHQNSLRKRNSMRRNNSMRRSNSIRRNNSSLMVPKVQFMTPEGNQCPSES

Take `C#CCN1N=C(O[C@@H]2c3cc(C#N)ccc3OC(C)(C)[C@H]2O)C2CC2C1=O` (relative stereo) [Example 24, (3S, 4R, 1'R*,6'S*)-3,4-dihydro-2,2-dimethyl-3-hydroxy-4-(2-oxo-3-(2-propyn-1-yl)-3,4-diazabicyclo[4.1.D]hept-4-en-5-yloxy)-2H-1-benzopyran-6-carbonitrile]: in series [1], the “antihypertensive activity (in words)” value was “potent antihypertensive activity”, the “duration of activity (in words)” value is listed as “long duration of activity”, the ED (50 mmHg) was determined as 0.02 mg/kg and the “Max. increase of Heat Rate” value was 22.2 ± 2.3%. Further, the “Time for Onset of Max. Activity” value in series [1] turned out to be 5.6 ± 1.2 h.
On to `CN1N=C(O[C@@H]2c3cc(C#N)ccc3OC(C)(C)[C@H]2O)C2CC2C1=O` (relative stereo) [Example 22, (3S,4R,1'R*,6'S*)-3,4-dihydro-2,2-dimethyl-3-hydroxy-4-(3-methyl-2-oxo-3,4-diazabicyclo(4.1.0]hept-4-en-5-yloxy)-2H-benzopyran-6-carbonitrile], for which, on Potassium channel, the “potassium channel opening activity (in words)” value is listed as “possesses potassium channel opening activity” and the “ECAUC0.2 (effective concentration at which the area under the peak of the 86Rb release rate reached 0.2)” value amounted to 0.18.
Turning to `CCCCN1N=C(O[C@@H]2c3cc(C#N)ccc3OC(C)(C)[C@H]2O)C2CC2C1=O` (relative stereo) [Example 32, (3S,4R,1'R*,6'S*)-4-(3-n-butyl-2-oxo-3,4-diazabicyclo(4.1.0]hept-4-en-5-yloxy)-3,4-dihydro-2,2-dimethyl-3-hydroxy-2H-1-benzopyran-6-carbonitrile], in the series on Guinea Pig Tracheae, the “activity in relaxing tracheal smooth muscle vs cromakalim (in words)” value (from here on “activity … vs cromakalim (in words)”) is “more potent activity in relaxing tracheal smooth muscle than cromakalim” and the EC50 stood at 5 µM. Besides, in series [1], the “antihypertensive activity (in words)” value is “potent antihypertensive activity”, the “duration of activity (in words)” value is “long duration of activity”, the ED (50 mmHg) is 0.076 mg/kg and the “Max. increase of Heat Rate” value worked out at 22.3 ± 5.9%. In series [1], the “Time for Onset of Max. Activity” value amounted to 6.0 ± 0.6 h.
For the compound `C=CCN1N=C(O[C@@H]2c3cc(C#N)ccc3OC(C)(C)[C@H]2O)C2CC2C1=O` (relative stereo) [Example 23, (3S,4R,1'R*,6'S*)-4-(3-allyl-2-oxo-3,4-diazabicyclo[4.1.0]hept-4-en-5-yloxy)-3,4-dihydro-2,2-dimethyl-3-hydroxy-2H-1-benzopyran-6-carbonitrile], in the series with Guinea Pig Tracheae, the “activity … vs cromakalim (in words)” value is recorded as “more potent activity in relaxing tracheal smooth muscle than cromakalim” and the EC50 is 5.5 µM. For the same compound, on Potassium channel, the “potassium channel opening activity (in words)” value is recorded as “possesses potassium channel opening activity” and the “ECAUC0.2 (effective concentration at which the area under the peak of the 86Rb release rate reached 0.2)” value came out at 0.18.
`CC1(C)Oc2ccc(C#N)cc2[C@@H](OC2=NN(Cc3ccc(Cl)cc3Cl)C(=O)C3CC23)[C@@H]1O` (relative stereo) [Example 37, (3S,4R,1'R*,6'S*)-4-(3-(2,4-dichlorobenzyl)-2-oxo-3,4-diazabicyclo[4.1.0]hept-4-en-5-yloxy)-3,4-dihydro-2,2-dimethyl-3-hydroxy-2H-1-benzopyran-6-carbonitrile]: in series [1], the “antihypertensive activity (in words)” value is “potent antihypertensive activity”, the “duration of activity (in words)” value is “long duration of activity”, the ED (50 mmHg) came to 0.035 mg/kg and the “Max. increase of Heat Rate” value was determined as 9.2 ± 1.7%. The “Time for Onset of Max. Activity” value in series [1] turned out to be 7.6 ± 0.4 h.
In the case of `Cn1nc(O[C@@H]2c3cc(C#N)ccc3OC(C)(C)[C@H]2O)ccc1=O` [EMD57283, (3S,4R)3,4-Dihydro-4-((1,6-dihydro-1-methyl-6-oxo-3-pyridazinyl)oxy)-2,2-imethyl-3-hydroxy-2H-1-benzopyran-6-carbonitrile, reference compound], in series [2], the “Increase in Renal Blood Flow 1 Hr after Administration” value (from here on “Increase in Renal Blood Flow 1 Hr”) was 10.8 ± 4.1%. Further, the “ECAUC0.2 (effective concentration at which the area under the peak of the 86Rb release rate reached 0.2)” value at Potassium channel was 0.16. Moreover, in series [1], the ED (50 mmHg) stood at 0.0064 mg/kg, the “Max. increase of Heat Rate” value stood at 41.3 ± 2.8% and the “Time for Onset of Max. Activity” value was 2.8 ± 0.7 h.
With `COC(=O)C1=C(C)NC(C)=C(C(=O)OC)C1c1ccccc1[N+](=O)[O-]` [Nifedipine, reference compound], in the series on male HOS-Donryu rats, the “S Value (area of ST segment depression over 5 minutes)” value was determined as 393 μV.min.
For the compound `CC1(C)Oc2ccc(C#N)cc2[C@@H](OC2=NN(Cc3c(Cl)cccc3Cl)C(=O)C3CC23)[C@@H]1O` (relative stereo) [Example 36, (3S,4R,1'R*,6'S*)-4-(3-(2,6-dichlorobenzyl)-2-oxo-3,4-diazabicyclo[4.1.0]hept-4-en-5-yloxy)-3,4-dihydro-2,2-dimethyl-3-hydroxy-2H-1-benzopyran-6-carbonitrile], in series [2], the “Increase in Renal Blood Flow 1 Hr” value stood at 15.4 ± 4.5% and the “activity in increasing the renal blood flow vs reference drug (in words)” value is listed as “more potent activity in increasing the renal blood flow than the reference drug”. Besides, in series [1], the “antihypertensive activity (in words)” value is listed as “potent antihypertensive activity”, the “duration of activity (in words)” value was “long duration of activity”, the ED (50 mmHg) stood at 0.4 mg/kg and the “Max. increase of Heat Rate” value is listed as 9.6 ± 1.3%. For the same compound, in series [1], the “Time for Onset of Max. Activity” value was 6.8 ± 0.5 h.
In the case of `CN1N=C(O[C@@H]2c3cc(C#N)ccc3OC(C)(C)[C@@]2(C)O)C2CC2C1=O` (relative stereo) [Example 56, (3S,4R,1'R*,6'S*)-3,4-Dihydro-3-hydroxy-4-(3-methyl-2-oxo-3,4-diazabicyclo[4.1.0]hept-4-en-5-yloxy)-2,2,3-trimethyl-2H-1-benzopyran-6-carbonitrile], at Potassium channel, the “potassium channel opening activity (in words)” value is on record as “possesses potassium channel opening activity” and the “ECAUC0.2 (effective concentration at which the area under the peak of the 86Rb release rate reached 0.2)” value is given as 0.021. In series [1], the “antihypertensive activity (in words)” value is “potent antihypertensive activity”, the “duration of activity (in words)” value is on record as “long duration of activity”, the ED (50 mmHg) is 0.0023 mg/kg and the “Max. increase of Heat Rate” value is 19.2 ± 0.5%. In series [1], the “Time for Onset of Max. Activity” value was 6.4 ± 0.4 h.
As for `CC1(C)Oc2ccc(C#N)cc2[C@@H](OC2=NN(Cc3ccccc3)C(=O)[C@H]3C[C@@H]23)[C@@H]1O` [Example 21, (3S, 4R, 1'S, 6'R)-4-(3-Benzyl-2-oxo-3,4-diazabicyclo[4.1.0]hept-4-en-5-yloxy)-3,4-dihydro-2,2-dimethyl-3-hydroxy-2H-1-benzopyran-6-carbonitrile], in series [2], the “Increase in Renal Blood Flow 1 Hr” value is 59.4 ± 9.7% and the “activity in increasing the renal blood flow vs reference drug (in words)” value was “more potent activity in increasing the renal blood flow than the reference drug”. Further, in series [1], the “antihypertensive activity (in words)” value is reported as “potent antihypertensive activity”, the “duration of activity (in words)” value is reported as “long duration of activity”, the ED (50 mmHg) was determined as 0.053 mg/kg and the “Max. increase of Heat Rate” value stood at 19.7 ± 3.0%. For the same compound, the “Time for Onset of Max. Activity” value in series [1] was 6.4 ± 0.5 h.
With `CC(C)=CCN1N=C(O[C@@H]2c3cc(C#N)ccc3OC(C)(C)[C@H]2O)C2CC2C1=O` (relative stereo) [Example 29, (3S,4R,1'R*,6'S*)-3,4-dihydro-2,2-dimethyl-3-hydroxy-4-(3-(3-methyl-2-buten-1-yl)-2-oxo-3,4-diazabicyclo[4.1.0]hept-4-en-5-yloxy)-2H-1-benzopyran-6-carbonitrile], in the series with Guinea Pig Tracheae, the “activity … vs cromakalim (in words)” value is on record as “more potent activity in relaxing tracheal smooth muscle than cromakalim” and the EC50 stood at 3 µM.

For the origin of these results see patent US5418232A, “Diazabicycloalkene derivatives” (Daiichi Pharmaceutical Co., Ltd., priority 1992, dated 1995).
